Here are results for one compound from US20030161893A1, “PTPase inhibitors and methods of using the same” (priority 2001, published 2003).

One assay has as its target T1, SHP-1 (Mus musculus, UniProt P29351).
T1 construct: made in house
The assay is described as follows: In vitro PTPase assay, GST/SHP-1 fusion protein. The format is biochemical. As to the method: In vitro PTPase activities were measured using the commercial protein tyrosine phosphatase assay kit (Upstate Biotechnology, Inc. (“UBI”)) following established procedure known to one of skill in the art. […] 100 μl of Malachite Green solution was added and incubated for 5 minutes, and the absorbance at 660 nm was measured after 5 minutes.
The beads were then either subjected to in vitro PTPase assays or washed 3 times in Tris buffer then subjected to in vitro PTPase assays.
Briefly, individual PTPases (0.1 μg/reaction) in 50 μL of PTPase buffer (50 mM Tris, pH 7.4) were incubated at 22° C. for 10 minutes or as indicated in the absence or presence of inhibitory compounds. […] […] […] Relative PTPase activities were calculated based on the formula: (PTPase activity in the presence of an inhibitory compound/PTPase activity in the absence of the compound)×100%. To assess the reversibility of PTPase inhibition, GST fusion proteins of the PTPases bound on glutathione beads (Pharmacia) were pre-incubated with cold Tris buffer (50 mM Tris, pH 7.0) or Tris buffer containing the inhibitor at 4° C. for 30 minutes. The beads were then washed three times in cold Tris buffer or not washed prior to subjecting to in vitro PTPase assays.

The subject of another assay is U266 cells. Description: Cell proliferation assay (MTT), U266 multiple myeloma cells. The format is cell-based, human. The settings on record: day 6. As to the method:
(§1) For cell proliferation assays, cells were grown in 10% FCS culture medium containing various amounts of IFNs and/or sodium stibogluconate in 96 well plates and cultured at 37° C. for 3 or 6 days as indicated. The numbers of viable cells in proliferation assays were determined by MTT assays as described in Phatak et al., J. Immunol. 167, 3391 (2001).

The test system of a further assay is WM9 cells. The assay is described as follows: Cell proliferation assay (MTT), WM9 melanoma cells. It is filed as cell-based, human. As to the method: as §1
Dose response curves were generated for each drug alone, and also the combinations. Median effect plots were generated for IFNs alone, sodium stibogluconate alone, and the combination. The combination index (CI) was determined and plotted vs. fraction affected (FA). Data were analyzed in both modes, mutually exclusive and mutually nonexclusive. The interaction between two mutually nonexclusive drugs is described by the Equation CI=D1/D×1+D2/D×2+D1D2/D×1D×2, where D×1 and D×2 are the doses of drug 1 and drug 2 that are required to inhibit growth×%. […] When CI<1, drugs are synergistic, when CI=1, drugs are additive, and when CI>1, drugs are antagonistic.

Another assay has as its system WM35 cells. Description: Cell proliferation assay (MTT), WM35 melanoma cells. It is filed as cell-based, human. The procedure:
as §1

Another assay deals with WiT49-N1 cells. The assay is described as follows: Cell proliferation assay (MTT), WiT49-N1 Wilms tumor cells. The settings on record: day 6. The format is cell-based, human. The procedure: as §1
Another assay concerns A549 cells. Description: Cell growth assay (MTT), A549 lung cancer cells. The settings on record: 100 μg/ml, day 6. The format is cell-based, human. The procedure:
(§2) NIH3T3 (Yi, et al., Blood 85, 87 (1995)), WM9 (Forsberg, et al., Proc. Nat. Acad Sci. USA 90, 393 (1993)), DU145 (Mickey, et al., Cancer Res. 37, 4049 (1977)), LoVo (Drewinko, et al., Cancer Res. 36, 467 (1976)), HEY (Buick, et al., Cancer Res. 45, 3668 (1985)), U251 (Yoshida, et al., Cancer 50, 410 (1982)), A549 (Giard, et al., J. Natl. Cancer Inst. 51, 1417 (1973)) and SK-N-SH (Helson, et al., Cancer Res. 35, 2594 (1975)) cell lines have been described and were cultured in RPMI 1640 supplemented with 10% fetal calf serum (FCS). For measurement of sodium stibogluconate effects on cell growth in vitro, cells were cultured in the absence (−) or presence (+) of various amounts of sodium stibogluconate for 6 days with viable cells quantified by MTT assays (Mosmann, J. Imunol. Methods 65, 55 (1983)). Percentages of growth inhibition by sodium stibogluconate were calculated (+/−×%).

A further assay has as its system SK-N-SH cells. The assay is described as follows: Cell growth assay (MTT), SK-N-SH neuroblastoma cells. It is filed as cell-based, human. The settings on record: 100 μg/ml, day 6. As to the method: as §2
For another assay, the system named is DU145R cells. The assay is described as follows: Cell growth assay (MTT), DU145R cells. The format is cell-based, human. The settings on record: day 6 culture. As to the method:
DU145 cells were cultured in the presence of sodium stibogluconate (100 μg/ml) in 48 well plates for 3 weeks. Cells from a well containing a single colony were transferred to flasks, cultured in sodium stibogluconate-free medium for 3 weeks and used as DU145R cells for further characterization. Growth of DU145R cells in the absence or presence of sodium stibogluconate in day 6 culture was determined by MTT assays. cDNAs of the coding region of PRLs were derived by RT-PCR from DU145 and DU145R cells and sequenced using primers described below.

T1 sequence (P29351 whole entry): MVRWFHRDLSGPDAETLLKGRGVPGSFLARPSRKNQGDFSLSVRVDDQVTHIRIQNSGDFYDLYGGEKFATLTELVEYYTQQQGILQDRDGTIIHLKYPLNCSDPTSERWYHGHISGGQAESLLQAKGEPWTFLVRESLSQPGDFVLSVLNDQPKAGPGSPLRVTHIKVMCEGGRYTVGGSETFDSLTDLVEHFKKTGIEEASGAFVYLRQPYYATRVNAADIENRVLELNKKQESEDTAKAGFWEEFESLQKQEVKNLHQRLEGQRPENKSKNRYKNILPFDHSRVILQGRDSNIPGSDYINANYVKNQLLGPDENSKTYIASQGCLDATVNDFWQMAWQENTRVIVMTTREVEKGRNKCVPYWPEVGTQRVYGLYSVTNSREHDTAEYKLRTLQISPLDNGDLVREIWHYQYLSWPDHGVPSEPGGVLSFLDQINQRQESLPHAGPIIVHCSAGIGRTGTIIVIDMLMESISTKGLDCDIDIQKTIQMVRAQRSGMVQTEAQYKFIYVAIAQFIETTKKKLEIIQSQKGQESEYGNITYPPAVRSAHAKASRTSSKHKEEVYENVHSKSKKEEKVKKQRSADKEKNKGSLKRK

Take `O.O.O.O.O.O.O.O.O.O=C([O-])[C@@H]1[O][Sb]2([O-])([O][Sb]34([OH])[O][C@H]([C@H](O)CO)[C@H]([O]3)[C@H](C(=O)[O-])[O]4)[O][C@H]([C@H](O)CO)[C@@H]1[O]2.[Na+].[Na+].[Na+]` [sodium stibogluconate]: at SHP-1 (pNPP substrate), the “dephosphorylation of pNPP by SHP-1, SHP-2 and PTP1B” value is “similarly inhibited”. Moreover, at SHP-1 (parental mixture at Sb concentration of 10 μg/ml), the “activity against recombinant SHP-1 of HPLC fractions and parental mixture” value is “inactivated SHP-1”. Besides, on SHP-1 (pre-incubated at 4° C. 30 minutes, beads washed 3 times), the “reversibility of SHP-1 inhibition by washing” value is “not affected by washing”. Further, in the assay with U266 cells, the “IFN-alpha-induced growth inhibition of U266 cells in presence of drug” value is “augmentation of IFN-alpha-induced cell growth inhibition” and the “growth inhibition of U266 cells by the drug by itself” value is reported as “substantial growth inhibition activity”. In addition, the “killing of WM9 cells, single agent” value in the assay with WM9 cells (50 μg/ml and 100 μg/ml, day 6 culture) is on record as “killed all cells”. Besides, the “IFN-alpha-induced growth inhibition of WM9 in presence of drug” value with WM9 cells (day 6) is on record as “augmented”. Besides, the “IFN-alpha- and IFN-beta-induced growth inhibition of WM9 in presence of drug” value in the assay on WM9 cells (day 6, most dramatic at 12.5-50 μg/ml and IFNs 12.5-50 units/ml) is reported as “greatly enhanced”. In addition, the “sensitivity of WM35 cells” value in the assay on WM35 cells is listed as “minimally affected”. In the assay on WiT49-N1 cells, the “growth inhibition of WiT49-N1 with added IFN-alpha” value was “not enhanced by IFN-alpha” and the “sensitivity of WiT49-N1 cells” value is listed as “sensitive”. For the same compound, in the assay with A549 cells, the “cell killing, A549” value was “near-complete cell killing”. The “cell killing, SK-N-SH” value in the assay on SK-N-SH cells is listed as “near-complete cell killing”. Besides, the “growth of DU145R cells versus parental DU145” value with DU145R cells is “growth resistance to sodium stibogluconate”.
